Counter-ions that a name gives are not always drawn.

In one assay the test system is Zymosan Stimulated Macrophaqes. The experiment in a line: Test A: Inhibition of Arachidonic Acid Release from Zymosan Stimulated Macrophages. The format is cell-based, mouse (female MF1). The settings on record: Mus musculus, Macrophage, 5 h, inhibition of arachidonic acid release; six concentrations (100, 50, 20, 10, 5 and 1 μM); 5 h with zymosan; read-out: Test A IC50. As for the experimental part:
Inhibition of Arachidonic Acid Release from Zymosan Stimulated Macrophaqes
Female MF1 mice (weighing 20 to 25 g) were killed using a rising concentration of CO2. The mice were laid on their backs and the abdomens wiped with 70% alcohol. The skin was pulled back, exposing the peritoneal wall. Medium A (5 ml) (see below) was injected into the peritoneal cavity of each mouse followed by approximately 1 ml of air using a 20 ml syringe and a 21 G×40 mm needle in order to form a suspension of macrophage cells. The medium and cells were then removed using a 19 G×40 mm needle. The resulting suspension was returned to a sterile beaker kept on ice. The extracts from all the mice were pooled and this pooled cell suspension was counted using a Coulter counter and adjusted to a final cell count of 1-1.3×10^6 cells/ml prior to labelling with [^3 H]-arachidonic acid. Typically five mice provided sufficient cells for each multiwell plate.
Sufficient [^3 H]-arachidonic acid in ethanol to give a final concentration of 1.6 μCi/ml (equivalent to 40 μCi/plate) was blown to dryness under nitrogen. The arachidonic acid was then resuspended in 1 or 2 ml of the cell suspension which was then mixed with the remainder of the cell suspension in a centrifuge bottle. The labelled cell suspension was then plated out into sterile plastic 96 flat-bottomed well plates (250 μl per well) and incubated overnight at 37° C. in a moist atmosphere of 5% CO2, 95% air.
The following day, non-adherent cells were removed by washing 3 times with sterile phosphate buffered saline (PBS). The adherent peritoneal macrophages were then cultured for a further 24 hours in the presence or absence of drugs, in medium B (see below) at 37° in a 5% CO2 atmosphere in order to measure the effects of drugs on the spontaneous release of arachidonic acid in the absence of stimulus. After this incubation, supernatants were removed to give media 1 and stored in sealed multi-well plates at 4° C. prior to scintillation counting. Drugs which potentiated spontaneous release of arachidonic acid (125% of controls) were deemed to be toxic at the concentration at which this phenomenon occurred. The supernatants were replaced by fresh medium C containing fresh drug and a stimulus. Three drugs were tested at six concentrations (100, 50, 20, 10, 5 and 1 μM) in replicates of four on each plate. The other wells contained controls consisting of a positive control (e.g. dexamethasone), medium (B) only and medium C only.
Incubation was then continued for a further 5 hours, whereupon the supernatants were collected to give media 2 and the adherent cells washed with PBS. The cells were then lysed with 100 μl of 0.1% TRITON® X100 in a 0.1% solution of bovine serum albumin in 0.9% saline and mechanically disrupted to give cell lysates. These supernatants (media 2) and cell lysates (Cells) were also stored in sealed multi-well plates at 4° C. prior to scintillation counting. 200 μl aliquots of media, or 100 μl aliquots of cells were counted using 2 ml of OPTIPHASE "HIGH SAFE" (Trademark of LKB) as scintillant.
The percentage of arachidonic acid released was calculated using the mean values for each group of 4 wells in the following equation. [formula] cpm=courts per minute
The value for the arachidonic acid release in the absence of stimulus (spontaneous, cpm of media 2) from cells which had been exposed to neither stimulus nor drug was subtracted from all equivalent values (cpm media 2, stimulated with or without drug) to give the net stimulated release. The percentage inhibition of arachidonic acid release caused by a drug may then be calculated using the following equation. [formula]
Compounds of formula I were tested at six concentrations (100, 50, 20, 10, 5 and 1 μM) and IC50 values calculated. Compounds with IC50 values<100 μM are considered to be active. Advantageous compounds have an IC50 value <50 μM.
Medium A (for peritoneal lavage) […]
For orientation: IC50 means the concentration needed to halve the response being measured. Consider `CC(NCCCn1ccnc1)c1ccc(Cl)c(Cl)c1` (stereo not drawn) [Example 3, N-[1-(3,4-Dichlorophenyl)ethyl]-3-(imidazol-1-yl)propylamine], for which the IC50 was found to be 60 µM.

In the case of `CC(NCCCn1ccnc1)c1ccc(F)cc1` (stereo not drawn) [Example 4, N-[1-(4-Fluorophenyl)ethyl]-3-(imidazol-1-yl)propylamine], the IC50 is 95 µM.

As to `CC(NCCCn1ccnc1)c1ccc(N(C)C)cc1` (stereo not drawn) [Example 6, N-[1-(4-Dimethylaminophenyl)ethyl]-3-(imidazol-1-yl)-propylamine], the IC50 came to 92 µM.

For the compound `Cc1cc(C(C)NCCCn2ccnc2)ccc1Cl` (stereo not drawn) [Example 12, N-[1-(4-Chloro-3-methylphenyl)ethyl]-3-(imidazol-1-yl)propylamine], the IC50 was 36 µM.

For `CC(NCCCn1ccnc1)c1cc(Cl)ccc1Cl` (stereo not drawn) [Example 15, N-[1-(2,5-Dichlorophenyl)ethyl]-3-(imidazol-1-yl)propylamine], the IC50 came out at 72 µM.

With `COc1cc(Cl)ccc1C(C)NCCCn1ccnc1` (stereo not drawn) [Example 17, N-[1-(4-Chloro-2-methoxyphenyl)ethyl]-3-(imidazol-1-yl)propylamine], the 50% inhibitory concentration (IC50) worked out at 90 µM.

`CCOc1cc(Cl)ccc1C(C)NCCCn1ccnc1` (stereo not drawn) [Example 18, N-[1-(4-Chloro-2-ethoxyphenyl)ethyl]-3-(imidazol-1-yl)propylamine]: the IC50 is 50 µM.

On to `CCOC(=O)c1ccc(C(C)NCCCn2ccnc2)cc1` (stereo not drawn) [Example 20, Ethyl 4-{1-[3-(imidazol-1-yl)propylamino]ethyl}benzoate], for which the IC50 was 70 µM.

As for `CCc1ccc(C(C)NCCCn2ccnc2)cc1` (stereo not drawn) [Example 21, N-[1-(4-Ethylphenyl)ethyl]-3-(imidazol-1-yl)propylamine hemioxalate], the concentration for half-maximal inhibition (IC50) turned out to be 65 µM.

For the compound `CC(NCCCn1ccnc1)c1ccc(OC(F)(F)F)cc1` (stereo not drawn) [Example 23, 3-(Imidazol-1-yl)-N-[1-(4-trifluoromethoxyphenyl)ethyl]propylamine sesquicitrate], the IC50 came out at 22 µM.

For the compound `Brc1ccc(CNCCCn2ccnc2)cc1` [Example 36, N-(4-Bromobenzyl)-3-(imidazol-1-yl)propylamine], the IC50 was found to be 90 µM.

Turning to `FC(F)(F)c1ccc(CNCCCn2ccnc2)cc1` [Example 37, 3-(Imidazol-1-yl)-N-(4-trifluoromethylbenzyl)propylamine dihydrochloride], the concentration for half-maximal inhibition (IC50) is 75 µM.

As to `FC(F)(F)Oc1ccc(CNCCCn2ccnc2)cc1` [Example 38, 3-(Imidazol-1-yl)-N-(4-trifluoromethoxybenzyl)propylamine dihydrochloride], the IC50 was determined as 80 µM.

As to `Cc1cn(CCCNCc2ccc(Cl)cc2)c(C)n1` [Example 42, N-(4-chlorobenzyl)-3-(2,4-dimethylimidazol-1-yl)propylamine dihydrochloride], the IC50 was 8 µM.

As for `Clc1ccc(CNCCCCn2ccnc2)cc1` [Example 46, N-(4-Chlorobenzyl)-4-(imidazol-1-yl)butylamine dihydrochloride], the IC50 turned out to be 86 µM.

For `Cc1cn(CCCNCc2ccc(Cl)cc2)c(-c2ccccc2)n1` [Example 48, N-(4-chlorobenzyl)-3-(4-methyl-2-phenylimidazol-1-yl)propylamine], the IC50 worked out at 15 µM.

In the case of `CC(C)(CNCc1ccc(Cl)cc1)Cn1ccnc1` [Example 61, N-(4-chlorobenzyl)-3-(imidazol-1-yl)-2,2-dimethylpropylamine], the IC50 was determined as 70 µM.

On to `CC(C)(NCCCCCCCCn1ccnc1)c1ccc(Cl)cc1` [Example 63, N-[1-(4-chlorophenyl)-1-methylethyl]-8-(imidazol-1-yl)octylamine], for which the IC50 is 7 µM.

In the case of `CC(C)(NCCCn1cnc([N+](=O)[O-])c1)c1ccc(Cl)cc1` [Example 74, N-[1-(4-Chlorophenyl)-1-methylethyl]-3-(4-nitroimidazol-1-yl)propylamine], the IC50 was determined as 70 µM.

For `CC(C)(NCCCn1cnc(CO)c1)c1ccc(Cl)cc1` [Example 79, 1-{3-[1-(4-Chlorophenyl)-1-methylethylamino]propyl}imidazol-4-yl-methanol], the IC50 was determined as 85 µM.

As for `CC(C)(NCCCn1ccnc1)c1ccc(-c2ccccc2)cc1` [Example 81, N-[1-(4-Biphenylyl)-1-methylethyl]-3-(imidazol-1-yl)propylamine dihydrochloride], the concentration for half-maximal inhibition (IC50) came out at 14 µM.

As for `CC(C)(NCCCn1ccnc1)c1ccc2ccccc2c1` [Example 83, N-[1-(2-Naphthyl)-1-methylethyl]-3-(imidazol-1-yl)propylamine dihydrochloride hemihydrate], the IC50 came out at 28 µM.

As to `CCC(CC)(NCCCn1cnc(CO)c1)c1ccccc1` [Example 86, 1-[3-(1-ethyl-1-phenylpropylamino)propyl]imidazol-4-yl-methanol], the IC50 was found to be 78 µM.

With `CC(C)(NCCCn1ccnc1)c1ccc(OCc2ccccc2)cc1` [Example 87, N-[1-(4-Benzyloxyphenyl)-1-methylethyl]-3-(imidazol-1-yl)propylaminedihydrochloride], the IC50 was 12 µM.

Consider `CC(c1ccc(Cl)cc1)N(C)CCCn1ccnc1` (stereo not drawn) [Example 90, N-[1-(4-chlorophenyl)ethyl]-3-(imidazol-1-yl)-N-methylpropylamine], for which the IC50 is 62 µM.

`CCCOC(=O)c1ccc(CNCCCn2ccnc2C)cc1` [Example 94, propyl 4-[3-(2-methylimidazol-1-yl)propylaminomethyl]benzoate]: the IC50 came to 20 µM.

On to `Cc1nccn1CCCCCNCc1ccc(Cl)cc1` [Example 95, N-(4-chlorobenzyl)-5-(2-methylimidazol-1-yl)pentylamine], for which the IC50 worked out at 4 µM.

As for `CN(CCCn1ccnc1)C(C)(C)c1ccc(Cl)cc1` [Example 96, N-[1-(4-chlorophenyl)-1-methylethyl]-3-(imidazol-1-yl)-N-methylpropylamine], the IC50 worked out at 75 µM.

In the case of `Cc1nccn1CCCN(C)Cc1ccc(Cl)cc1` [Example 97, N-(4-chlorobenzyl)-N-methyl-3-(2-methylimidazol-1-yl)propylamine], the concentration for half-maximal inhibition (IC50) was found to be 60 µM.

As to `CCC(CC)(NCCCn1cnc(COC(C)=O)c1)c1ccccc1` [Example 103, 1-[3-(α,α-diethylbenzylamino)propyl]imidazol-4-ylmethyl acetate], the IC50 amounted to 51 µM.

Still in this assay, the particulars now being: inhibition of arachidonic acid release; six concentrations (100, 50, 20, 10, 5 and 1 μM); 5 h with zymosan; citrate; read-out: Test A IC50.
As to `CC(C)(NCCCn1ccnc1)c1ccc(Cl)cc1` [Example 99, N-[1-(4-chlorophenyl)-1-methylethyl]-3-(imidazol-1-yl)propylamine citrate], the concentration for half-maximal inhibition (IC50) is 14 µM.

Still in this assay, the particulars now being: inhibition of arachidonic acid release; six concentrations (100, 50, 20, 10, 5 and 1 μM); 5 h with zymosan; dihydrate; read-out: Test A IC50.
Regarding `CC(C)(NCCCn1ccnc1)c1ccc(Cl)cc1` [Example 100, N-[1-(4-chlorophenyl)-1-methylethyl]-3-(imidazol-1-yl)propylamine (+)tartrate dihydrate], the IC50 came to 20 µM.

The assay is the same for the next values; noted with them: inhibition of arachidonic acid release; six concentrations (100, 50, 20, 10, 5 and 1 μM); 5 h with zymosan; read-out: Test A IC50.
On to “A mixture of N-[1-(4-chlorophenyl)-1-methylethyl]-3-(4-methylimidazol-1-yl)propylamine and N-[1-(4-chlorophenyl)-1-methylethyl]-3-(5-methylimidazol-1-yl)propylamine [Example 69]”, for which the 50% inhibitory concentration (IC50) was determined as 11 µM.

(Values after patent publication US5547972A, “Therapeutic agents useful for treating inflammatory diseases” (The Boots Company PLC, priority 1991, dated 1996).)
